# Assay results taken from ChEMBL document CHEMBL1201862, “PubChem BioAssay data set” (2004).
# The source made the active and inactive calls.
# Columns and labels:
# Cytochrome P450 3A4 = Cytochrome P450 3A4 (Homo sapiens, UniProt P08684);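 further: CYP3A4 tested as one member of a cytochrome P450 panel screen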
# Cytochrome P450 2C19 = Cytochrome P450 2C19 (Homo sapiens, UniProt P33261); test: Cytochrome panel assay with activity outcomes. Panel member name: p450-cyp2c19 Compounds with AC50 equal or less than 10 uM are considered active; type: functional
# [1] = alpha-synuclein stem-loop luciferase translation blockers – H4 neuroglioma cells, luminescence, confirmation (AID 1988); type: functional, cell-based
# [2] = Luminescence Cell-Based Dose Response HTS to Identify Inhibitors of 5'UTR Stem-Loop Driven Prion Protein mRNA Translation in H4 Neuroglioblastoma Cells. [Related pubchem assays: 1827 (Project Summary), 1813 (Primary HTS)]; type: functional
# [3] = luciferase reporter signal suppression in cells – H4 neuroglioma cells, luminescence, dose response (AID 1990); type: functional, cell-based
# Cytochrome P450 2D6 = Cytochrome P450 2D6 (Homo sapiens, UniProt P10635);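 further: CYP2D6 member of a cytochrome P450 panel assay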
# Protein RecA = biological target: T1, Protein RecA (Mycobacterium tuberculosis, UniProt P9WHJ3); test: Fluorescence Cell-Free Homogeneous Dose Retest to Identify Inhibitors of RecA-Intein Splicing Activity. [Related pubchem assays (depositor defined):AID2097, AID2223, AID489010, AID492950]; type: functional
# T1 sequence (P9WHJ3 whole entry): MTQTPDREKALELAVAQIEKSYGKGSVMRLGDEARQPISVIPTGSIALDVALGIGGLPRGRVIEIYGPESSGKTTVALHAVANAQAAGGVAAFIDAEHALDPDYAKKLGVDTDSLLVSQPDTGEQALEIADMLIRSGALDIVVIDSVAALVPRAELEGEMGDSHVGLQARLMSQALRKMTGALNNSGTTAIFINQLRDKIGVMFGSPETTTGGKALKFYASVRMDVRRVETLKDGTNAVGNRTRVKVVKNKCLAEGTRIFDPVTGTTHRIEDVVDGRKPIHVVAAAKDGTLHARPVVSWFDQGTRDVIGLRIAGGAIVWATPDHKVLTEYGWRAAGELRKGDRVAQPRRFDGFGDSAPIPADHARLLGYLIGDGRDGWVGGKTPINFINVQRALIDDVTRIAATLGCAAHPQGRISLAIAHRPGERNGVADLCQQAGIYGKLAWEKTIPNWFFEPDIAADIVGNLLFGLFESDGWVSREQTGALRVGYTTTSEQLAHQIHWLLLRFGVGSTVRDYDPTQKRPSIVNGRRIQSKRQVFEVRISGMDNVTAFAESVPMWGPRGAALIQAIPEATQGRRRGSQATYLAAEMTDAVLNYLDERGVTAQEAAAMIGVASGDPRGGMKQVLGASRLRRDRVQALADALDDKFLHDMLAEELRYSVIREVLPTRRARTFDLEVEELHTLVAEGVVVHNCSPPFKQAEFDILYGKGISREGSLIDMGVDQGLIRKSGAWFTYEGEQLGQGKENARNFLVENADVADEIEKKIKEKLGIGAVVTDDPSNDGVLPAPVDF
# H4 = test: Luminescence Cell-Based Dose Response HTS to Identify Activators of 5'UTR Stem-Loop Driven Prion Protein mRNA Translation in H4 Neuroglioblastoma Cells. [Related pubchem assays: 1829 (Project Summary), 1814 (Primary HTS)]; type: functional; details: Homo sapiens
# [4] = Luminescence Cell-Based Dose Response HTS to Identify Activators of Luciferase Translation or Activity in H4 […] Cells. [Related pubchem assays: 1829 (Project Summary), 1814 (Primary HTS)]; type: functional
# [5] = tested on: Streptococcus sp. 'group A'; test: Streptococcus pyogenes SK(-)GAS viability under kanamycin – luminescence, BacTiterGlo, confirmation, counter-screen for streptokinase expression inhibitor project, dose response (AID 1900); type: functional, organism-based
# Streptococcus = test: GAS UMAA2166 growth inhibition – luminescence, BacTiterGlo, counter-screen for streptokinase expression inhibitor project, dose response (AID 1915); type: functional, organism-based;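 further: potency for reduction of bacterial viability or growth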
# Streptokinase A = biological target: T2, Streptokinase A (Streptococcus pyogenes serotype M1, UniProt P10520); test: viability-normalized secreted streptokinase activity reduction – plasminogen activation absorbance, OD405, dose response (AID 1914); type: functional, Streptococcus pyogenes M1 GAS;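 further: secreted streptokinase activity via plasminogen activation per viability signal from cell pellet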
# T2 sequence (P10520 whole entry): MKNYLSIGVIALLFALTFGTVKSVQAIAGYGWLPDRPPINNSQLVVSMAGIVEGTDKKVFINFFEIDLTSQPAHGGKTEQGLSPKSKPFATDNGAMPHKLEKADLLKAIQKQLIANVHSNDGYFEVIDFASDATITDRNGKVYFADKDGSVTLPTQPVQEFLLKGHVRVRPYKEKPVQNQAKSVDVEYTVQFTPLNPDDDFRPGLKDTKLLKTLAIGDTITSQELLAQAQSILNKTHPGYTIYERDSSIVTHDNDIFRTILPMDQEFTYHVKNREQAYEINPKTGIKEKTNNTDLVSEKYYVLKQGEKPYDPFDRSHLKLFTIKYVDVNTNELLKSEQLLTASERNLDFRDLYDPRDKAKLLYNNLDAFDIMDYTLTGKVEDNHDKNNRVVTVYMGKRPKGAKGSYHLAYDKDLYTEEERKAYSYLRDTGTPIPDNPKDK
# Sequence of Cytochrome P450 2D6 (P10635 whole entry): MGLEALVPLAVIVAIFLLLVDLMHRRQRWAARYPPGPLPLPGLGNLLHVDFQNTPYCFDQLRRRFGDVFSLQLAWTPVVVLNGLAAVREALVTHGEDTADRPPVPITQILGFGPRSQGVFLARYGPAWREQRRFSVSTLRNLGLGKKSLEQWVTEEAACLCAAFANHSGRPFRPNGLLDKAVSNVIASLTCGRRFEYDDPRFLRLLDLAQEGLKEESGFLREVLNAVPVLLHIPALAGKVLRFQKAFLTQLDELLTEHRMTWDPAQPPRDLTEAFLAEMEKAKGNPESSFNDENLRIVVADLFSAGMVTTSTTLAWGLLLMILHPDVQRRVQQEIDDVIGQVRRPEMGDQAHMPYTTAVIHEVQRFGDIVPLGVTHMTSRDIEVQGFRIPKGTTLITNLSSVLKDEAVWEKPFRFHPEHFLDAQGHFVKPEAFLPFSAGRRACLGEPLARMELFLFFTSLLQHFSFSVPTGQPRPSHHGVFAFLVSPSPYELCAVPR
# Sequence of Cytochrome P450 3A4 (P08684 whole entry): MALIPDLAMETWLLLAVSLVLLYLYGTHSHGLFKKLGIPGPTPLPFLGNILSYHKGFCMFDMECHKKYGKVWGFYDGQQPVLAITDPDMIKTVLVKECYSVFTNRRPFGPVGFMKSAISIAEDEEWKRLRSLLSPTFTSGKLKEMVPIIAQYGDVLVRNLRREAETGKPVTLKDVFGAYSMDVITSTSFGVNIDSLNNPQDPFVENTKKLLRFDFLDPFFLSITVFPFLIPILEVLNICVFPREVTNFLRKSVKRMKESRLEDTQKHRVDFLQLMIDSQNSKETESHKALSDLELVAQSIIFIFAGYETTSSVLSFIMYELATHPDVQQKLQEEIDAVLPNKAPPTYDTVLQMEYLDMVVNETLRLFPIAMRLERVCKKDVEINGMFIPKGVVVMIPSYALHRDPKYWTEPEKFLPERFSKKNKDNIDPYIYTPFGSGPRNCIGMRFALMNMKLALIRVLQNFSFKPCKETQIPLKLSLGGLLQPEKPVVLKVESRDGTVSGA
# Sequence of Cytochrome P450 2C19 (P33261 whole entry): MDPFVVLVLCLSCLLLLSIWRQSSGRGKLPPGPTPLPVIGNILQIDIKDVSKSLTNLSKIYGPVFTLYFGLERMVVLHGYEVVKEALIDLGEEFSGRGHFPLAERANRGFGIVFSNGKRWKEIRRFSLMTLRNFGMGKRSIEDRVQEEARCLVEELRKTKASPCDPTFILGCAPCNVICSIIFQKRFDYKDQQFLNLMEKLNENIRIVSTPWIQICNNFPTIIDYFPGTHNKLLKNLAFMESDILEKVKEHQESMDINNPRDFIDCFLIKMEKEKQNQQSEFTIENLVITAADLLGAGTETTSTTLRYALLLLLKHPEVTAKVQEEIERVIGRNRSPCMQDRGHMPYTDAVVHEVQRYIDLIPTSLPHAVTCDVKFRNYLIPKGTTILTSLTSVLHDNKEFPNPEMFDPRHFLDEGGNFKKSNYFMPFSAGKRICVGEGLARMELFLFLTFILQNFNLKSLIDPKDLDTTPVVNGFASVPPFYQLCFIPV
compound,measurement,setting,value
SC1=NC2=C(C(c3ccc(Br)cc3)N1)N1CCC2CC1 (stereo unspecified),AC50,Cytochrome P450 3A4,1.58 µM (inconclusive)
COCCn1c(=O)c(C)nc2cnc(Oc3cccc(Cl)c3)nc21,AC50,Cytochrome P450 2C19; read-out: AC50,20 µM (inconclusive)
CCn1c(S)nnc1CC(=O)Nc1ccc(C)cc1,EC50,[1],> 120 µM (not active)
same,EC50,[2],> 120 µM (not active)
same,EC50,[3],> 120 µM (not active)
CCOC(=O)CSc1nnc(CSc2nc3sc4c(c3c(=O)[nH]2)CCCC4)n1-c1ccccc1,AC50,Cytochrome P450 3A4,1 µM (inconclusive)
COc1cccc(N2C(=O)C(CC(=O)Nc3ccccc3)N(C3CCCCC3)C2=O)c1 (stereo unspecified),AC50,Cytochrome P450 2D6,17.8 µM (inconclusive)
O=C(/C=C\c1ccccc1)c1ccccc1O,AC50,Cytochrome P450 2C19; read-out: AC50,3.98 µM (inconclusive)
Cc1ccccc1-c1nc(NCc2cccnc2)c2ccccc2n1,AC50,Cytochrome P450 2C19; read-out: AC50,15.8 µM (inconclusive)
same,AC50,Cytochrome P450 2D6,39.8 µM (inconclusive)
O=c1c(-c2cccs2)nc2cnc(Oc3cccc(Cl)c3)nc2n1C[C@H]1CCCO1,AC50,Cytochrome P450 3A4,10 µM (inconclusive)
CCO/C=C1/C(=O)N(Cc2ccccc2)C(=O)c2ccccc21,EC50,Protein RecA,> 380 µM (inactive)
CC(=O)N1CCC[C@@]2(CCN(Cc3ccc(C#N)cc3)C2)C1,AC50,Cytochrome P450 2D6,12.6 µM (inconclusive)
CCOc1cc(C2NC(=O)NC(c3ccccc3)=C2C(C)=O)ccc1OCC(N)=O (stereo unspecified),AC50,Cytochrome P450 3A4,20 µM (inconclusive)
CCOC(=O)c1cnc2c(OC)cccc2c1N1CCN(c2ccccn2)CC1,EC50,[1],11.5 µM (active)
same,EC50,[2],53.9 µM (active)
same,EC50,[3],15.6 µM (active)
COc1ccc2c(c1)C1=NN(/C(C)=C\C(C)=O)C(c3ccccc3)C1CC2 (stereo unspecified),EC50,H4,7.74 µM (active)
same,EC50,[4],24.7 µM (active)
COc1ccc(/C=C/C(=O)c2c(C)nc3ccccn23)cc1,EC50,H4,> 120 µM (not active)
same,EC50,[4],0.225 µM (active)
O=S(=O)(c1ccc(F)cc1)c1nc(-c2ccccc2)oc1N1CCOCC1,EC50,[5],> 150 µM (not active)
same,EC50,Streptococcus,> 150 µM (not active)
same,EC50,Streptokinase A,> 150 µM (not active)
COCCNc1ncnc2ccc(-c3c(C)noc3C)cc12,AC50,Cytochrome P450 3A4,31.6 µM (inconclusive)
C[C@@]12C(=O)N(Cc3ccccc3)CC(=O)N1[C@H](/C=C/c1ccccc1)[C@@H]1C(=O)N(c3ccccc3)C(=O)[C@@H]12,EC50,[1],14.9 µM (active)
same,EC50,[2],> 120 µM (not active)
same,EC50,[3],25.8 µM (active)
COc1ccc(-c2cc(C)no2)cc1S(=O)(=O)N1CCOc2ccccc21,EC50,[1],31.4 µM (active)
same,EC50,[2],83.5 µM (active)
same,EC50,[3],> 120 µM (not active)
O=C(/C=C/c1c(F)cccc1Cl)Nc1ncccn1,EC50,H4,7.88 µM (active)
same,EC50,[4],0.974 µM (active)
COc1ccc(-n2c(=O)c(C)nc3cnc(OC)nc32)cc1,AC50,Cytochrome P450 2C19; read-out: AC50,39.8 µM (inconclusive)
same,AC50,Cytochrome P450 3A4,25.1 µM (inconclusive)
COc1cccc(-c2nc(NC3CCNCC3)c3ccccc3n2)c1,AC50,Cytochrome P450 3A4,25.1 µM (inconclusive)
COc1ccc([N+](=O)[O-])cc1N=C(S)NC(NC(=O)C(c1ccccc1)c1ccccc1)C(Cl)(Cl)Cl (stereo unspecified),EC50,[5],14.4 µM (active)
same,EC50,Streptococcus,> 150 µM (not active)
COc1ccc([N+](=O)[O-])cc1NC(=S)NC(NC(=O)C(c1ccccc1)c1ccccc1)C(Cl)(Cl)Cl (stereo unspecified),EC50,Streptokinase A,> 150 µM (not active)
COc1ccc(NC(=O)N2CC[C@@]3(CCCN(C(=O)c4cccn4C)C3)C2)cc1,AC50,Cytochrome P450 3A4,2 µM (inconclusive)
CN(C)c1ccc(-c2nc(NCc3cccnc3)c3ccccc3n2)cc1,AC50,Cytochrome P450 2C19; read-out: AC50,10 µM (inconclusive)
O=C(c1ccncc1)N1CCC2(CCN(Cc3nccs3)CC2)CC1,AC50,Cytochrome P450 2D6,15.8 µM (inconclusive)
CCc1ccc(CNC(=O)C2CCN(S(=O)(=O)N3CC(C)CC(C)C3)CC2)cc1 (stereo unspecified),EC50,[1],93.3 µM (active)
same,EC50,[2],> 120 µM (not active)
same,EC50,[3],> 120 µM (not active)
COc1ccc(CCNS(=O)(=O)c2cccc3cccnc23)cc1OC,EC50,[1],> 120 µM (not active)
same,EC50,[2],> 120 µM (not active)
same,EC50,[3],> 120 µM (not active)
CCCC[C@@H]1C[C@H]1C(NC(=O)Cc1ccccc1)c1ccc(-c2ccccc2)cc1 (stereo partly specified),AC50,Cytochrome P450 3A4,12.6 µM (inconclusive)
CC(=O)NCCNc1ncncc1-c1ccccc1CN(C)C,AC50,Cytochrome P450 2D6,39.8 µM (inconclusive)
same,AC50,Cytochrome P450 3A4,12.6 µM (inconclusive)
CS(=O)(=O)N1CCC2(CCCN(C(c3ccccc3)c3ccccc3)C2)CC1,AC50,Cytochrome P450 2C19; read-out: AC50,20 µM (inconclusive)
CCOC(=O)c1nnn(-c2nonc2-n2cccc2)c1CN1CCC(C)CC1,EC50,[5],9.92 µM (active)
same,EC50,Streptococcus,> 150 µM (not active)
same,EC50,Streptokinase A,14.9 µM (active)
O=C(C1CCCN(S(=O)(=O)c2ccc(Br)cc2)C1)N1CCN(Cc2ccccc2)CC1 (stereo unspecified),EC50,[1],22.7 µM (active)
same,EC50,[2],> 120 µM (not active)
same,EC50,[3],15.5 µM (active)
O=C(c1cnc(N2CCN(c3ncccn3)CC2)c2ccccc12)N1CCN(c2ncccn2)CC1,AC50,Cytochrome P450 2D6,11.2 µM (inconclusive)
same,AC50,Cytochrome P450 3A4,39.8 µM (inconclusive)
CCCc1nc2oc3c(NCCCN(C)C)ncnc3c2c2c1CCCC2,EC50,[1],8.73 µM (active)
same,EC50,[2],> 120 µM (not active)
same,EC50,[3],12.5 µM (active)
CCC(C)(C)n1nnnc1C(c1ccc(C)cc1)N1CCC(C)CC1 (stereo unspecified),AC50,Cytochrome P450 2D6,17.8 µM (inconclusive)
COC(=O)C1N2C(=O)[C@@H](NC(=O)COc3ccccc3)[C@H]2SC1(C)C (stereo partly specified),EC50,[5],0.535 µM (active)
same,EC50,Streptococcus,0.889 µM (active)
COc1ccc(O[C@H]2C=C[C@@H](c3ccccc3)O[C@H]2COC(=O)N2CCCCC2)cc1,AC50,Cytochrome P450 2D6,3.98 µM (inconclusive)
CCOc1ccc(NC(=O)CSc2nnc(Cc3ccccc3)c(=O)n2N)cc1,EC50,[5],> 150 µM (not active)
same,EC50,Streptococcus,> 150 µM (not active)
same,EC50,Streptokinase A,> 150 µM (not active)
Cc1ccc(CCN2CC(C(=O)NCCN3CCCCCC3)CC2=O)cc1 (stereo unspecified),AC50,Cytochrome P450 2C19,inconclusive
same,AC50,Cytochrome P450 2D6,20 µM (inconclusive)
same,AC50,Cytochrome P450 3A4,35.5 µM (inconclusive)
O=C(/C=C/c1ccccc1)N/C(=C/c1ccccc1)C(=O)Nc1ccccc1O,AC50,Cytochrome P450 2C19; read-out: AC50,17.8 µM (inconclusive)
same,AC50,Cytochrome P450 2D6,22.4 µM (inconclusive)
CCOc1ccccc1NS(=O)(=O)c1ccc(Br)s1,EC50,[1],> 120 µM (not active)
same,EC50,[2],25.2 µM (active)
same,EC50,[3],> 120 µM (not active)
CC(=O)Nc1ccc(S(=O)(=O)N(Cc2cccnc2)Cc2cc3ccc(C)cc3nc2O)cc1,EC50,[1],> 120 µM (not active)
same,EC50,[2],> 120 µM (not active)
same,EC50,[3],> 120 µM (not active)
Cc1ccc(Sc2nc(C)cc(C)c2S(C)(=O)=O)cc1,AC50,Cytochrome P450 2D6,17.8 µM (inconclusive)
same,AC50,Cytochrome P450 3A4,14.1 µM (inconclusive)
Cc1ccc2[nH]c(SCC(=O)Nc3nnc(SCC(N)=O)s3)nc2c1,AC50,Cytochrome P450 2C19; read-out: AC50,22.4 µM (inconclusive)
same,AC50,Cytochrome P450 3A4,22.4 µM (inconclusive)
Cc1cccc(OCC(=O)NCC(=O)N/N=C/c2cc(Br)cc(Br)c2O)c1,EC50,[5],0.486 µM (active)
same,EC50,Streptococcus,1.66 µM (active)
CNCCc1c[nH]c2ccc(O)cc12,AC50,Cytochrome P450 2D6,39.8 µM (inconclusive)
O=C(O)CCC(=O)N1CCC[C@H]1C(=O)O,AC50,Cytochrome P450 2C19,inconclusive
O=[N+]([O-])c1cc(/C=N/O)ccc1SCc1ccccc1,AC50,Cytochrome P450 2C19; read-out: AC50,6.31 µM (inconclusive)
same,AC50,Cytochrome P450 3A4,11.2 µM (inconclusive)
